# Assays:
# bedstraw = test: Test B pre/postemergence bedstraw; format: in vivo, Galium aparine; conditions: Postemergence, Rate 125 g/ha; scale 0 to 10, 0 is no effect, 10 is complete control
# How it was run: (§1)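 Response is a visual 0-to-10 score relative to untreated plants, where 0 means no effect and 10 means complete control, taken twelve to sixteen days after application. Treatments went onto soil at planting and onto foliage of 1- to 4-leaf plants, using a surfactant-containing non-phytotoxic solvent.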
# blackgrass = test: Test B pre/postemergence blackgrass; format: in vivo, Alopecurus myosuroides
# How it was run: as §1
# surinam grass = test: Test B pre/postemergence surinam grass; format: in vivo, Brachiaria decumbens
# How it was run: as §1
# cocklebur = test: Test B pre/postemergence cocklebur; format: in vivo, Xanthium strumarium
# How it was run: as §1
# corn = test: Test B pre/postemergence corn; format: in vivo, Zea mays
# How it was run: as §1
# crabgrass = test: Test B pre/postemergence crabgrass; format: in vivo, Digitaria sanguinalis
# How it was run: as §1
# giant foxtail = test: Test B pre/postemergence giant foxtail; format: in vivo, Setaria faberii
# How it was run: as §1
# morningglory = test: Test B pre/postemergence morningglory; format: in vivo, Ipomoea hederacea
# How it was run: as §1
# pigweed = test: Test B pre/postemergence pigweed; format: in vivo, Amaranthus retroflexus
# How it was run: as §1
# rape = test: Test B pre/postemergence rape; format: in vivo, Brassica napus
# How it was run: as §1
# soybean = test: Test B pre/postemergence soybean; format: in vivo, Glycine max
# How it was run: as §1
# sugar beet = test: Test B pre/postemergence sugar beet; format: in vivo, Beta vulgaris
# How it was run: as §1
# velvetleaf = test: Test B pre/postemergence velvetleaf; format: in vivo, Abutilon theophrasti
# How it was run: as §1
# wheat = test: Test B pre/postemergence wheat; format: in vivo, Triticum aestivum
# How it was run: as §1
# wild oat = test: Test B pre/postemergence wild oat; format: in vivo, Avena fatua
# How it was run: as §1
# purple nutsedge = test: Test B pre/postemergence purple nutsedge; format: in vivo, Cyperus rotundus
# How it was run: as §1
# rice = test: Test B flood test rice; format: in vivo, Oryza sativa
# How it was run: (§2)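 Each value is a visual injury score relative to controls, with 10 meaning complete control and 0 no effect. Evaluation took place twelve to sixteen days after the 2-leaf-stage plants were treated and kept in the greenhouse.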
# smallflower flatsedge = test: Test B flood test smallflower flatsedge; format: in vivo, Cyperus difformis
# How it was run: as §2
# duck salad = test: Test B flood test duck salad; format: in vivo, Heteranthera limosa
# How it was run: as §2
# bamyardgrass = test: Test B flood test barnyardgrass; format: in vivo, Echinochloa crus-galli
# How it was run: as §2
# [1] = Postemergence, Rate 125 g/ha, scale 0 to 10, 0 is no effect, 10 is complete control
# [2] = Postemergence, Rate 500 g/ha, scale 0 to 10, 0 is no effect, 10 is complete control
# [3] = Preemergence, Rate 62 g/ha, scale of 0 to 10 where 0 is no effect and 10 is complete control
# [4] = Preemergence, Rate 125 g/ha, scale 0 to 10, 0 is no effect, 10 is complete control
# [5] = Preemergence, Rate 250 g/ha, scale 0 to 10, 0 is no effect, 10 is complete control
# [6] = Preemergence, Rate 500 g/ha, scale 0 to 10, 0 is no effect, 10 is complete control
# [7] = Rate 62 g/ha, Postemergence, scale 0 to 10 (0 no effect, 10 complete control)
# [8] = Postemergence, Rate 250 g/ha, scale 0 to 10
# [9] = Rate 62 g/ha, flood test species, Pre-emergence, visual evaluation after twelve to sixteen days
# [10] = Rate 125 g/ha, under heading Pre-emergence, flood test species, visual evaluation after twelve to sixteen days
# [11] = Rate 250 g/ha, Pre-emergence (flood test species), scale 0 to 10, 0 is no effect, 10 is complete control
# [12] = Rate 500 g/ha, Pre-emergence section of Table B, 0 to 10 scale (0 no effect, 10 complete control)
structure (smiles),measurement,setting,value
CC(C)N(C(=O)n1oc(=O)n(CC(=O)C2CC2)c1=O)c1ccc(F)cc1F [Compound 490],Bedstraw plant response rating,bedstraw,3
same,Blackgrass plant response rating,blackgrass; [1],4
same,"Plant response rating, Blackgrass",blackgrass; [2],5
same,"Plant response rating, Blackgrass",blackgrass; [3],7
same,Blackgrass plant response rating,blackgrass; [4],8
same,Blackgrass plant response rating,blackgrass; [5],9
same,Blackgrass plant response rating,blackgrass; [6],9
same,Blackgrass plant response rating,blackgrass; [7],2
same,B. signalgrass plant response rating,surinam grass; [1],4
same,B. signalgrass plant response rating,"surinam grass; Postemergence, Rate 250 g/ha, scale 0 to 10, 0 no effect, 10 complete control",4
same,"Plant response rating, B. signalgrass",surinam grass; [2],7
same,"Plant response rating, B. signalgrass",surinam grass; [3],3
same,B. signalgrass plant response rating,surinam grass; [4],5
same,B. signalgrass plant response rating,surinam grass; [5],6
same,B. signalgrass plant response rating,surinam grass; [6],8
same,B. signalgrass plant response rating,surinam grass; [7],2
same,Cocklebur plant response rating,cocklebur; [1],0
same,Cocklebur plant response rating,cocklebur; [8],0
same,"Plant response rating, Cocklebur",cocklebur; [2],0
same,Cocklebur plant response rating,cocklebur; [4],0
same,Cocklebur plant response rating,cocklebur; [5],0
same,Cocklebur plant response rating,cocklebur; [7],0
same,Corn plant response rating,corn; [1],0
same,Corn plant response rating,corn; [8],0
same,"Plant response rating, Corn",corn; [2],0
same,"Plant response rating, Corn",corn; [3],0
same,Corn plant response rating,corn; [4],0
same,Corn plant response rating,corn; [6],5
same,Corn plant response rating,corn; [7],0
same,Crabgrass plant response rating,crabgrass; [1],6
same,Crabgrass plant response rating,crabgrass; [8],6
same,"Plant response rating, Crabgrass",crabgrass; [2],7
same,"Plant response rating, Crabgrass",crabgrass; [3],8
same,Crabgrass plant response rating,crabgrass; [4],9
same,Crabgrass plant response rating,crabgrass; [6],10
same,Crabgrass plant response rating,crabgrass; [7],3
same,Giant foxtail plant response rating,giant foxtail; [1],8
same,"Plant response rating, Giant foxtail",giant foxtail; [2],8
same,"Plant response rating, Giant foxtail",giant foxtail; [3],9
same,Giant foxtail plant response rating,giant foxtail; [4],9
same,Giant foxtail plant response rating,giant foxtail; [6],10
same,Giant foxtail plant response rating,giant foxtail; [7],2
same,Morningglory plant response rating,morningglory; [1],3
same,"Plant response rating, Morningglory",morningglory; [2],3
same,"Plant response rating, Morningglory",morningglory; [3],0
same,Morningglory plant response rating,morningglory; [4],0
same,Morningglory plant response rating,morningglory; [6],0
same,Morningglory plant response rating,morningglory; [7],2
same,Redroot pigweed plant response rating,pigweed; [1],0
same,"Plant response rating, Redroot pigweed",pigweed; [2],2
same,"Plant response rating, Redroot pigweed",pigweed; [3],5
same,Redroot pigweed plant response rating,pigweed; [4],7
same,Redroot pigweed plant response rating,pigweed; [6],8
same,Redroot pigweed plant response rating,pigweed; [7],0
same,Rape plant response rating,rape; [1],0
same,"Plant response rating, Rape",rape; [2],0
same,"Plant response rating, Rape",rape; [3],0
same,Rape plant response rating,rape; [4],1
same,Rape plant response rating,rape; [6],8
same,Rape plant response rating,rape; [7],0
same,Soybean plant response rating,soybean; [1],5
same,"Plant response rating, Soybean",soybean; [2],6
same,"Plant response rating, Soybean",soybean; [3],0
same,Soybean plant response rating,soybean; [4],0
same,Soybean plant response rating,soybean; [6],4
same,Soybean plant response rating,soybean; [7],4
same,Sugarbeets plant response rating,sugar beet; [1],0
same,"Plant response rating, Sugarbeets",sugar beet; [2],0
same,"Plant response rating, Sugarbeets",sugar beet; [3],0
same,Sugarbeets plant response rating,sugar beet; [4],0
same,Sugarbeets plant response rating,sugar beet; [6],5
same,Sugarbeets plant response rating,sugar beet; [7],0
same,Velvetleaf plant response rating,velvetleaf; [1],0
same,"Plant response rating, Velvetleaf",velvetleaf; [2],1
same,"Plant response rating, Velvetleaf",velvetleaf; [3],0
same,Velvetleaf plant response rating,velvetleaf; [4],0
same,Velvetleaf plant response rating,velvetleaf; [6],4
same,Velvetleaf plant response rating,velvetleaf; [7],0
same,Wheat plant response rating,wheat; [1],0
same,"Plant response rating, Wheat",wheat; [2],0
same,"Plant response rating, Wheat",wheat; [3],0
same,Wheat plant response rating,wheat; [4],0
same,Wheat plant response rating,wheat; [6],4
same,Wheat plant response rating,wheat; [7],0
same,Wild oats plant response rating,wild oat; [1],5
same,"Plant response rating, Wild oats",wild oat; [2],7
same,"Plant response rating, Wild oats",wild oat; [3],6
same,Wild oats plant response rating,wild oat; [4],7
same,Wild oats plant response rating,wild oat; [6],8
same,Wild oats plant response rating,wild oat; [7],5
same,Nutsedge plant response rating,purple nutsedge; [1],0
same,"Plant response rating, Nutsedge",purple nutsedge; [2],0
same,"Plant response rating, Nutsedge",purple nutsedge; [3],0
same,Nutsedge plant response rating,purple nutsedge; [4],0
same,Nutsedge plant response rating,purple nutsedge; [6],0
same,Nutsedge plant response rating,purple nutsedge; [7],0
same,"Plant response rating, Rice (0 to 10 scale, 0 is no effect, 10 is complete control)",rice; [9],0
same,"Rice plant response rating (0 to 10 scale, 0 is no effect, 10 is complete control)",rice; [10],0
same,Rice plant response rating,rice; [11],0
same,Rice plant response rating,rice; [12],0
same,"Plant response rating, S. Flatsedge (0 to 10 scale, 0 is no effect, 10 is complete control)",smallflower flatsedge; [9],0
same,"S. Flatsedge plant response rating (0 to 10 scale, 0 is no effect, 10 is complete control)",smallflower flatsedge; [10],0
same,S. Flatsedge plant response rating,smallflower flatsedge; [11],0
same,S. Flatsedge plant response rating,smallflower flatsedge; [12],0
same,"Plant response rating, Ducksalad (0 to 10 scale, 0 is no effect, 10 is complete control)",duck salad; [9],0
same,"Ducksalad plant response rating (0 to 10 scale, 0 is no effect, 10 is complete control)",duck salad; [10],0
same,Ducksalad plant response rating,duck salad; [11],0
same,Ducksalad plant response rating,duck salad; [12],0
same,"Plant response rating, Barnyardgrass (0 to 10 scale, 0 is no effect, 10 is complete control)",bamyardgrass; [9],0
same,"Barnyardgrass plant response rating (0 to 10 scale, 0 is no effect, 10 is complete control)",bamyardgrass; [10],0
same,Barnyardgrass plant response rating,bamyardgrass; [11],0
same,Barnyardgrass plant response rating,bamyardgrass; [12],0
